Laboratory results from publication PMC5790467, “Enhanced anti-tumor efficacy and mechanisms associated with docetaxel-piperine combination- in vitro and in vivo investigation using a taxane-resistant prostate cancer model” (Oncotarget, 2017).

Test system: PC3-TxR cells
Assay: Microarray gene expression profiling of PC3-TxR cells treated with PIP
Assay type: cell-based, human
Settings: 6 h
Experimental: The microarray technique was utilized to identify the potential mechanisms related to the chemosensitizing effect of PIP in PC3-TxR cells by determining the gene expression profile at the whole genome level. PC3-TxR cells were seeded at a density of 1 × 10^5 cells/ml in DMEM supplemented with 10% fetal bovine serum and cultured for 24 h. The cells were then treated with PIP at concentrations of 25 and 50 μg/ml (as low and high concentrations respectively) for 6 h. PIP was initially dissolved in DMSO and diluted to the target concentrations using DMEM. DMSO (0.5%) was used as the negative control (n = 2). Total RNA was extracted using RNeasy Mini Kit (QIAGEN, Valencia, CA, USA) according to the manufacturer’s protocol. The RNA was measured and the quality was checked using the RNA 6000 LabChip and Agilent 2100 BioAnalyzer. Only the high-quality RNA samples (e.g. RNA integrity number greater than 9.0) were used for subsequent microarray procedure performed at the Functional Genomics Core, Beckman Research Institute, City of Hope Comprehensive Cancer Center. Affymetrix Human Genome U133 Plus 2.0 arrays (Santa Clara, CA, USA) containing 54,675 probe sets detecting over 47,000 transcripts were used. The RNA samples were randomized and blinded prior to the microarray processing/analysis. The cRNA synthesis and labeling were carried out following the Affymetrix GeneChip 3′ IVT Express standard preparation protocol using […] of total RNA from each sample, along with polyA spike-in controls. The cRNA samples were converted to double-stranded cDNA. After second-strand synthesis, the cDNA was purified with the GeneChip sample cleanup module (Affymetrix, Santa Clara, CA). Biotinylated cRNAs were then synthesized by in vitro transcription. For each sample, […] of biotinylated cRNA along with hybridization spiked controls (bioB, bioC, bioD, and cre) was hybridized with Affymetrix Human Genome U133 Plus 2.0 array for 16 h at 45°C. Following hybridization, arrays were washed, stained, and then scanned with an Affymetrix GeneChipH 3000 7G scanner.
Statistical testing and additional analysis of the microarray data were conducted using Partek “Gene Expression” Workflow, i.e., Filtering, PCA, Sample Histogram, QC metrics, Gene Clustering, and ANOVA Analysis). The probe-set level expression data were summarized with Robust Multichip Average (RMA) by taking all 8 microarrays together. PCA and hierarchical clustering analysis (HCA) combined with heatmap was used to assess the quality of the microarray data by evaluating the reproducibility and variation of three replicates within each group and the differences among the three groups. The log2-transformed expression intensities of 54,675 probe sets from the 8 microarrays were used to calculate the Pearson Correlation Coefficient and Ward’s Minimum Variance method was used to calculate the distance between samples.
The differentially expressed genes (DEGs) between the treatment and control group were identified using cutoffs of t-test p value < 0.05 and fold change >2. The DEGs and probe sets were selected separately by comparing each treatment group with the control group. The dose dependent DEGs were than selected by overlapping the two DEGs sets. A functional annotation of these genes was carried out, using a gene ontology-based analysis of biological properties.

## O=C(/C=C/C=C/c1ccc2c(c1)OCO2)N1CCCCC1 [PIP, 1-piperoyl piperidine]
High dose PIP
  expression change of Angiopoietin-like 4: 1.6
  expression change of CYP1B1: −4.3
  expression change of Fatty acid binding protein 4, adipocyte: 1.9
  expression change of Keratin associated protein 2–3: −4.7
  expression change of Keratin associated protein 3–1: −2.7
  expression change of Metastasis associated lung adenocarcinoma transcript 1 (non-protein coding): 4.1
  expression change of O-linked N-acetylglucosamine (GlcNAc) transferase: 2.3
  expression change of Sodium channel, non-voltage-gated 1, gamma subunit: 1.5
  expression change of TCDD-inducible poly(ADP-ribose) polymerase: −2.6
  expression change of Thrombospondin 1: −2.4
Low dose PIP
  expression change of Angiopoietin-like 4: 2.3
  expression change of CYP1B1: −5.1
  expression change of Fatty acid binding protein 4, adipocyte: 2.5
  expression change of Keratin associated protein 2–3: −3.3
  expression change of Keratin associated protein 3–1: −2.0
  expression change of Metastasis associated lung adenocarcinoma transcript 1 (non-protein coding): 3.0
  expression change of O-linked N-acetylglucosamine (GlcNAc) transferase: 2.0
  expression change of Sodium channel, non-voltage-gated 1, gamma subunit: 2.5
  expression change of TCDD-inducible poly(ADP-ribose) polymerase: −2.8
  expression change of Thrombospondin 1: −2.2
